Structures can show the parent of a compound that is named as a salt. Where two headings read alike, the source gives them in different places.
Key:
P. aeruginosa ATCC 27853 = conditions: ATCC 27853, in vivo, iv, 9 h
HK-2 cell line = assay: In vitro renal cell toxicity assay (resazurin reduction); assay type: cell-based, human
Pseudomonas aeruginosa [1] = assay: MIC, compound in combination with a second agent (broth microdilution); assay type: cell-based; conditions: 1:1 (wt:wt) combination with Rifampicin, MIC = total drug concentration
How it was run: (§1)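 MIC = combined concentration of test compound plus partner agent, mixed at equal mass (1:1 w/w, salt form as used). Up to four strains per species; colonies adjusted to 0.5 McFarland. Run in duplicate; >2-fold disagreement invalidates the run.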

Escherichia coli [2] = assay: as above; assay type: cell-based; conditions: 1:1 (wt:wt) combination with Rifampicin, MIC = total drug concentration
How it was run: as §1

Acinetobacter baumannii [3] = assay: as above; assay type: cell-based; conditions: 1:1 (wt:wt) combination with Rifampicin, MIC = total drug concentration
How it was run: as §1

Klebsiella pneumoniae [4] = assay: as above; assay type: cell-based; conditions: 1:1 (wt:wt) combination with Rifampicin; MIC = total drug concentration; strain CCUG-59348
How it was run: as §1

Pseudomonas aeruginosa [5] = assay: MIC, sole activity (no second agent); assay type: cell-based
How it was run: (§2)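 First, isolated colonies grown 18-24 hours on Mueller-Hinton agar were suspended to 0.5 McFarland; next, up to four strains per pathogen were tested in duplicate in cation-adjusted MHB; finally, the lower concordant value or modal repeat value was reported against Polymyxin B.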

Escherichia coli [6] = assay: MIC, sole activity (no second agent); assay type: cell-based
How it was run: as §2

Acinetobacter baumannii [7] = assay: MIC, sole activity (no second agent); assay type: cell-based
How it was run: as §2

Klebsiella pneumoniae [8] = assay: MIC, sole activity (no second agent); assay type: cell-based
How it was run: as §2

[9] = Table 6A, no second agent, different supplier of Cation-adjusted MHB

Question: For `CC(C)C[C@@H]1NC(=O)[C@@H](Cc2ccccc2)NC(=O)[C@H](CCN)NC(=O)[C@@H](NC(=O)[C@H](CCN)NC(=O)[C@@H](NC(=O)[C@H](CCN)NC(=O)CC(N)C2CCCCC2)C(C)O)CCNC(=O)[C@H](C(C)O)NC(=O)[C@H](CCN)NC(=O)[C@H](CCN)NC1=O` (mixture of isomers) [Example 39, 3-(RS)-(3-Amino-3-cyclohexyl)propanoyl polymyxin B decapeptide, trifluoroacetate salt], which “Log reduction from vehicle (CFU/g)” value (P. aeruginosa ATCC 27853; 2 mg/kg) is on record?
Answer: Its value is 2.56 log CFU/g.

Question: What about the “Log reduction from vehicle (CFU/g)” value (P. aeruginosa ATCC 27853; 4 mg/kg) of the same compound?
Answer: Its value is 3.88 log CFU/g.

Question: And the “HK-2 IC50 rel to PMB” value (HK-2 cell line)?
Answer: The value was 1.5-2.

Question: What about the “MIC P. aeruginosa ATCC 27853” value (Pseudomonas aeruginosa [1]; strain ATCC 27853) of the same compound?
Answer: The value was 0.125 micrograms/mL.

Question: What about the “MIC P. aeruginosa ATCC CRM-9027” value (Pseudomonas aeruginosa [1]; strain ATCC CRM-9027) of the same compound?
Answer: The value was 0.25 micrograms/mL.

Question: And the “MIC P. aeruginosa ATCC-47” value (Pseudomonas aeruginosa [1]; strain ATCC-47)?
Answer: The value was 0.125 micrograms/mL.

Question: What about the “MIC P. aeruginosa CCUG 59626” value (Pseudomonas aeruginosa [1]; strain CCUG 59626) of the same compound?
Answer: The value was 0.125 micrograms/mL.

Question: And the “MIC E. coli ATCC25922” value (Escherichia coli [2]; strain ATCC25922)?
Answer: Its value is no more than 0.06 micrograms/mL.

Question: And the “MIC E. coli NCTC9001” value (Escherichia coli [2]; strain NCTC9001)?
Answer: The value was 0.125 micrograms/mL.

Question: And the “MIC A. baumannii ATCC BAA-747” value (Acinetobacter baumannii [3]; strain ATCC BAA-747)?
Answer: The value was 0.125 micrograms/mL.

Question: And the “MIC A. baumannii CCUG57249” value (Acinetobacter baumannii [3]; strain CCUG57249)?
Answer: The value was no more than 0.06 micrograms/mL.

Question: What about the “MIC A. baumannii NCTC 13423” value (Acinetobacter baumannii [3]; strain NCTC 13423) of the same compound?
Answer: Its value is no more than 0.06 micrograms/mL.

Question: What about the “MIC A. baumannii NCTC 13424” value (Acinetobacter baumannii [3]; strain NCTC 13424) of the same compound?
Answer: The value was 0.125 micrograms/mL.

Question: What about the “MIC K. pneumoniae CCUG-59348” value (Klebsiella pneumoniae [4]) of the same compound?
Answer: The value was 1 micrograms/mL.

Question: And the “MIC P. aeruginosa ATCC 27853” value (Pseudomonas aeruginosa [5]; [9])?
Answer: Its value is 0.25 micrograms/mL.

Question: What about the “MIC P. aeruginosa CCUG 59347” value (Pseudomonas aeruginosa [5]; [9]) of the same compound?
Answer: The value was 0.5 micrograms/mL.

Question: And the “MIC P. aeruginosa ATCC 27853” value (Pseudomonas aeruginosa [5]; in the absence of Rifampicin, strain ATCC27853)?
Answer: Its value is 0.125 micrograms/mL.

Question: What about the “MIC P. aeruginosa ATCC-47” value (Pseudomonas aeruginosa [5]; in the absence of Rifampicin, strain ATCC-47) of the same compound?
Answer: Its value is 1 micrograms/mL.

Question: What about the “MIC P. aeruginosa ATCCCRM-9027” value (Pseudomonas aeruginosa [5]; in the absence of Rifampicin, strain ATCCCRM-9027) of the same compound?
Answer: The value was 0.125 micrograms/mL.

Question: And the “MIC P. aeruginosa CCUG 59626” value (Pseudomonas aeruginosa [5]; in the absence of Rifampicin, strain CCUG 59626)?
Answer: The value was no more than 0.06 micrograms/mL.

Question: And the “MIC E. coli ATCC25922” value (Escherichia coli [6]; [9])?
Answer: Its value is 2 micrograms/mL.

Question: And the “MIC E. coli NCTC 13441” value (Escherichia coli [6]; [9])?
Answer: The value was 2 micrograms/mL.

Question: What about the “MIC E. coli ATCC25922” value (Escherichia coli [6]; in the absence of Rifampicin, strain ATCC25922) of the same compound?
Answer: Its value is 2 micrograms/mL.

Question: And the “MIC E. coli NCTC9001” value (Escherichia coli [6]; in the absence of Rifampicin, strain NCTC9001)?
Answer: The value was 4 micrograms/mL.

Question: What about the “MIC A. baumannii ATCC BAA-747” value (Acinetobacter baumannii [7]; [9]) of the same compound?
Answer: The value was 1 micrograms/mL.

Question: What about the “MIC A. baumannii NCTC 13424” value (Acinetobacter baumannii [7]; [9]) of the same compound?
Answer: Its value is 2 micrograms/mL.

Question: And the “MIC A. baumannii ATCC13424” value (Acinetobacter baumannii [7]; in the absence of Rifampicin, strain ATCC13424)?
Answer: The value was 0.125 micrograms/mL.

Question: What about the “MIC A. baumannii ATCCBAA-747” value (Acinetobacter baumannii [7]; in the absence of Rifampicin, strain ATCCBAA-747) of the same compound?
Answer: The value was 1 micrograms/mL.

Question: What about the “MIC A. baumannii CCUG57249” value (Acinetobacter baumannii [7]; in the absence of Rifampicin, strain CCUG 57249) of the same compound?
Answer: Its value is 1 micrograms/mL.

Question: And the “MIC A. baumannii NCTC 13423” value (Acinetobacter baumannii [7]; in the absence of Rifampicin, strain NCTC13423)?
Answer: Its value is 0.25 micrograms/mL.

Question: What about the “MIC K. pneumoniae ATCC 4352” value (Klebsiella pneumoniae [8]; [9]) of the same compound?
Answer: The value was 1 micrograms/mL.

Question: And the “MIC K. pneumoniae ATCC BAA-2146” value (Klebsiella pneumoniae [8]; [9])?
Answer: Its value is 2 micrograms/mL.

Question: And the “MIC K. pneumoniae ATCC 4352” value (Klebsiella pneumoniae [8]; in the absence of Rifampicin, strain ATCC 4352)?
Answer: Its value is 1 micrograms/mL.

Question: And the “MIC K. pneumoniae ATCC-BAA2146” value (Klebsiella pneumoniae [8]; in the absence of Rifampicin, strain ATCC-BAA2146)?
Answer: The value was 32 micrograms/mL.

Question: And the “MIC K. pneumoniae CCUG-59348” value (Klebsiella pneumoniae [8]; in the absence of Rifampicin, strain CCUG-59348)?
Answer: Its value is greater than 32 micrograms/mL.
